Values quoted from earlier work as cited in US20190343827A1, “DEUTERATED ANALOGS OF TARIQUIDAR” (Izumi Technology, LLC, priority 2018, published 2019).

Experiments:
[1] = tested on: non-small-cell lung cancer; settings: co-administration with paclitaxel or carboplatin
[2] = patients with lung, ovarian and cervical cancer

COc1cc2c(cc1OC)CN(CCc1ccc(NC(=O)c3cc(OC)c(OC)cc3NC(=O)c3cnc4ccccc4c3)cc1)CC2 [Tariquidar, N-[2-[[4-[2-(6,7-dimethoxy-3,4-dihydro-1H-isoquinolin-2-yl)ethyl]phenyl]carbamoyl]-4,5-dimethoxyphenyl]quinoline-3-carboxamide]
study outcome, toxicity [1]: terminated early due to toxicity
docetaxel disposition as a result of tariquidar co-administration [2]: No significant differences
clinical response (refractory solid tumors; children and adolescents with refractory solid tumors, 29 patients): low
clearance of docetaxel and vinorelbine (refractory solid tumors; co-administered with tariquidar, compared to historic data in absence of tariquidar): reduced
complete response, number of patients (refractory solid tumors; out of 29 patients): one
partial response, number of patients (refractory solid tumors; out of 29 patients): two
